Like-named read-outs stand apart in the source and are kept apart here.
Legend:
Test in all cases: Kinase inhibition profile (HTRF / ADP Glo kinase assay)
Format in all cases: biochemical
[1] = target: NEK2 (Homo sapiens (Human), UniProt P51955)
Experimental: (§1) HTRF kinase assay: 2×ATP and substrate solution as well as 2× kinase and metal solution were prepared with assay buffer. 25 nL of compound was transferred to 384-well assay plate by Echo 655. After centrifugation, 2.5 μL of 2× kinase/metal ion solution was added to the 384-well assay plate followed by incubation at 25° C. for 10 min. 2.5 μL of 2× substrate and ATP solution was added to the wells followed by incubation at 25° C. for 60 min. 2× XL665 and antibody solution was prepared with assay buffer. 5 μL of kinase detection reagent was added to the wells followed by incubation at 25° C. for 60 min. Fluorescence signals at 620 nm (Cryptate) and 665 nm (XL665) were read with a microtiter plate reader. ADP Glo kinase assay: 2×ATP and substrate solution as well as 2× kinase and metal solution were prepared with assay buffer. 20 nL of compound was transferred to 384-well assay plate by Echo 655. 2 μL of 2× kinase/metal ion solution was added followed by incubation at 25° C. for 10 min in the 384-well assay plate. 2 μL of 2× substrate and ATP solution was added to the wells followed by incubation at 25° C. for 60 min. 4 μL of ADP Glo reagent was added to the wells followed by incubation at 25° C. for 40 min. 8 μL of kinase test reagent was added to the wells followed by incubation at 25° C. for 40 min. The luminescence signals were recorded on a microtiter plate reader. Data analysis: the reaction control (0.5% DMSO) reading was set to 0% inhibition, and the background (10 μM positive control) reading was set to 100% inhibition, then the percent inhibition for each test solution was calculated and the results are shown in Table 2 and FIG. 3.

[2] = target: Erk2 (Homo sapiens (Human), UniProt P28482)
Experimental: as §1

[3] = target: DDR1 (Homo sapiens (Human), UniProt Q08345); conditions: for inhibition at 1 µM: 1 uM Compound C1, DDR1
Experimental: as §1

[4] = target: MAPKAPK2 (Homo sapiens (Human), UniProt P49137)
Experimental: as §1

[5] = target: JNK2 (Homo sapiens (Human), UniProt P45984)
Experimental: as §1

[6] = target: AMPKαl/β1/γ1 (Homo sapiens (Human), UniProt Q13131)
Experimental: as §1

[7] = target: ITK (Homo sapiens (Human), UniProt Q08881)
Experimental: as §1

[8] = target: CK2α1/β (Homo sapiens (Human), UniProt P68400)
Experimental: as §1

[9] = target: GSK3β (Homo sapiens (Human), UniProt P49841)
Experimental: as §1

[10] = target: DAPK1 (Homo sapiens (Human), UniProt P53355)
Experimental: as §1

[11] = target: AXL (Homo sapiens (Human), UniProt P30530)
Experimental: as §1

[12] = target: LCK (Homo sapiens (Human), UniProt P06239)
Experimental: as §1

[13] = target: KDR (Homo sapiens (Human), UniProt P35968)
Experimental: as §1

[14] = target: HPK1 (Homo sapiens (Human), UniProt Q92918)
Experimental: as §1

[15] = target: FGFR1 (Homo sapiens (Human), UniProt P11362)
Experimental: as §1

[16] = target: PDGFRα (Homo sapiens (Human), UniProt P16234)
Experimental: as §1

[17] = target: AKT1 (Homo sapiens (Human), UniProt P31749)
Experimental: as §1

[18] = target: PKACα (Homo sapiens (Human), UniProt P17612)
Experimental: as §1

[19] = target: MAP2K1 (Homo sapiens (Human), UniProt Q02750)
Experimental: as §1

[20] = target: CDK18/CyclinY (Homo sapiens (Human), UniProt Q07002)
Experimental: as §1

[21] = target: PLK2 (Homo sapiens (Human), UniProt Q9NYY3)
Experimental: as §1

[22] = 1 uM Compound C1, read-out: % Inhibition (First measurement)
[23] = 1 uM Compound C1, read-out: % Inhibition (Second measurement)
[24] = 1 uM Compound C1, read-out: Average inhibition (%)

AXL, sequence (P30530 26-894, species assumed): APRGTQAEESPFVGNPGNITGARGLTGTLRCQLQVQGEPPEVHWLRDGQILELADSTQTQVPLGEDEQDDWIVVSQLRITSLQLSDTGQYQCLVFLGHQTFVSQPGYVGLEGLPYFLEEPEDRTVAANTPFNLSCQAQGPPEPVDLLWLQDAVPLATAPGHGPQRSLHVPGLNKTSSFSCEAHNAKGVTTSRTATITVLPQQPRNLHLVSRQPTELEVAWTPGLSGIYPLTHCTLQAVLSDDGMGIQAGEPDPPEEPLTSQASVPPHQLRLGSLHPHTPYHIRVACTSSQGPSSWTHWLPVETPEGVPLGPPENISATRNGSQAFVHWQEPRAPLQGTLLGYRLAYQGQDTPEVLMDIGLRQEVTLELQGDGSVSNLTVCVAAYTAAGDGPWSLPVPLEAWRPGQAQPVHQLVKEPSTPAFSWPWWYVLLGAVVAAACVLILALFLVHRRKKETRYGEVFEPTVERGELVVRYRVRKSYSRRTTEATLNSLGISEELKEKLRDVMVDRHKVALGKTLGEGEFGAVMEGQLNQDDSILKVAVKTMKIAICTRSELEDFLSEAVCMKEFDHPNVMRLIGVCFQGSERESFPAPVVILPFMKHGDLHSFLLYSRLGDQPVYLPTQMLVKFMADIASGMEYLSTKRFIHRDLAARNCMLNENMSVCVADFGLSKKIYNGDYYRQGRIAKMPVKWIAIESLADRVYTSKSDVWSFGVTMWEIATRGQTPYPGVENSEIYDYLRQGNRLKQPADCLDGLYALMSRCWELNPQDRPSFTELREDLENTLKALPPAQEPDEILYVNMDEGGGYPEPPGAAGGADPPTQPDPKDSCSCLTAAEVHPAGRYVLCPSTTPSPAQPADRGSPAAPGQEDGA
AKT1, sequence (P31749 whole entry, species assumed): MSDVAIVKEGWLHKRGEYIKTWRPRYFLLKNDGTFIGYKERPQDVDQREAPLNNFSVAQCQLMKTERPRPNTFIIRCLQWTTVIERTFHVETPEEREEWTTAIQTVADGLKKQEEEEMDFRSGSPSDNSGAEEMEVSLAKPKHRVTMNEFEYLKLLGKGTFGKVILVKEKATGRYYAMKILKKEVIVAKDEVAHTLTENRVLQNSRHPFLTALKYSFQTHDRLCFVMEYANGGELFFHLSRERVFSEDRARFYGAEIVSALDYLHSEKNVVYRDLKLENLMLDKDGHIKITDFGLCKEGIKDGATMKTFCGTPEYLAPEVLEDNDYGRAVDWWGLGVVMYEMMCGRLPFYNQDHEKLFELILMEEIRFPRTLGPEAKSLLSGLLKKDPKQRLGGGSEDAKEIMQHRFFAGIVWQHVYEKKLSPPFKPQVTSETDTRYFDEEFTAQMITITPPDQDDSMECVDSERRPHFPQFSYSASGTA
CDK18/CyclinY, sequence (Q07002 whole entry, species assumed): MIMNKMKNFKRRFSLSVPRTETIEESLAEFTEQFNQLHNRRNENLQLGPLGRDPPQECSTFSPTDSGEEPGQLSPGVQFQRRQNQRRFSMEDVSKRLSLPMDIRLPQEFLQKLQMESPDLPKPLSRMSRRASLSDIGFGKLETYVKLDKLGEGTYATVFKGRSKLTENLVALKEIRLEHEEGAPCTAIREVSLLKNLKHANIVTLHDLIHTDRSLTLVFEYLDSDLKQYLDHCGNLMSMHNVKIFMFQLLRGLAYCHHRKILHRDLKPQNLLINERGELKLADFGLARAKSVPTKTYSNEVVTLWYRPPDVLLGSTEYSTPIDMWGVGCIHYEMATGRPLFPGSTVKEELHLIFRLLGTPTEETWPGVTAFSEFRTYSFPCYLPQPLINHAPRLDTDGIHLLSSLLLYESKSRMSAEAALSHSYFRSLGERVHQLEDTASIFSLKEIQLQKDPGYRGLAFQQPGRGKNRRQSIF
CDK18/CyclinY, sequence (Q8ND76 whole entry partner, species assumed): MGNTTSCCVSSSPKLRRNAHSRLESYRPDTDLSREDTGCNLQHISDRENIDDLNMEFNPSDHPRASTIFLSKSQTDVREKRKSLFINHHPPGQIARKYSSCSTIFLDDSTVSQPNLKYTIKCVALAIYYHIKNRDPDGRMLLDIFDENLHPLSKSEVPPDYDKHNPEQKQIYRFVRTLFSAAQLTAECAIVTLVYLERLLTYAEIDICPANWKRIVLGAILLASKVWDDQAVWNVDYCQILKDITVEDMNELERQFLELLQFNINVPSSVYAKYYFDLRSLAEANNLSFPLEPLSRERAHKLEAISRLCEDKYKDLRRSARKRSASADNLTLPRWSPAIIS
CK2α1/β, sequence (P68400 whole entry): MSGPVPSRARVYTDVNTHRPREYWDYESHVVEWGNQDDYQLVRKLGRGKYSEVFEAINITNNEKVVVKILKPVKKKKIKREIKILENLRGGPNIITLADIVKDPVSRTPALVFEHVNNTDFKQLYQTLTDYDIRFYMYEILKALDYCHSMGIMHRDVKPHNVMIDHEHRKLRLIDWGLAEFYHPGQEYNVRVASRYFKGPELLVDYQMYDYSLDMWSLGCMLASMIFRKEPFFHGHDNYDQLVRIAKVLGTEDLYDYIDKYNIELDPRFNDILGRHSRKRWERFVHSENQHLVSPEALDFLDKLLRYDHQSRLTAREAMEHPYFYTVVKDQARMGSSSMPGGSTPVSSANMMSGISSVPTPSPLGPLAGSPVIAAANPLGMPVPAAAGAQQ
CK2α1/β, sequence (P67870 whole entry partner): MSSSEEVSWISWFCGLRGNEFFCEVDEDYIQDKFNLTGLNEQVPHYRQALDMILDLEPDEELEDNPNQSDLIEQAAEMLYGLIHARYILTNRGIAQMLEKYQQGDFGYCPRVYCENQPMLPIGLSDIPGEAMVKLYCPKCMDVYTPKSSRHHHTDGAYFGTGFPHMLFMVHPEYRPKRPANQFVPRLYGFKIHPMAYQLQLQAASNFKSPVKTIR
FGFR1, sequence (P11362 22-822, species assumed): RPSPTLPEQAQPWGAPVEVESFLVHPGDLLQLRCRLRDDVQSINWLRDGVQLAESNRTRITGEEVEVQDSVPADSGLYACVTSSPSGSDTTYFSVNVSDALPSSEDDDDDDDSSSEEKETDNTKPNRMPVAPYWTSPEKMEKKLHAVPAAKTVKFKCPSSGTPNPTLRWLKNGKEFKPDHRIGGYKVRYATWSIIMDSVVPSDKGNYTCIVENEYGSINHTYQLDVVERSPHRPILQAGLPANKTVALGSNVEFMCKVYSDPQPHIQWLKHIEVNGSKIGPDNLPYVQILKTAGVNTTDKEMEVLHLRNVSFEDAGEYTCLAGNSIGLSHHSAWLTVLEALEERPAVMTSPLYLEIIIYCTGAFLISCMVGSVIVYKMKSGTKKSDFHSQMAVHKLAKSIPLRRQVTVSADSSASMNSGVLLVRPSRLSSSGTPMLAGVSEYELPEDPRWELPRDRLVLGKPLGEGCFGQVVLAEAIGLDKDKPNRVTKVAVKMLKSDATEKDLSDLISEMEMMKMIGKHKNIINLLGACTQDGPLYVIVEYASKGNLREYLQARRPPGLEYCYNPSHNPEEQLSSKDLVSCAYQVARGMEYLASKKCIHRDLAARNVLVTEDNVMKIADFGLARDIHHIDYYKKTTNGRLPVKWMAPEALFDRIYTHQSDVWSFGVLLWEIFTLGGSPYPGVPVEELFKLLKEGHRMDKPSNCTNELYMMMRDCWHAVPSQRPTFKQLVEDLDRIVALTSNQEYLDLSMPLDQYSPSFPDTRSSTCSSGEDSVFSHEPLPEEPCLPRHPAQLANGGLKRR
HPK1, sequence (Q92918 whole entry, species assumed): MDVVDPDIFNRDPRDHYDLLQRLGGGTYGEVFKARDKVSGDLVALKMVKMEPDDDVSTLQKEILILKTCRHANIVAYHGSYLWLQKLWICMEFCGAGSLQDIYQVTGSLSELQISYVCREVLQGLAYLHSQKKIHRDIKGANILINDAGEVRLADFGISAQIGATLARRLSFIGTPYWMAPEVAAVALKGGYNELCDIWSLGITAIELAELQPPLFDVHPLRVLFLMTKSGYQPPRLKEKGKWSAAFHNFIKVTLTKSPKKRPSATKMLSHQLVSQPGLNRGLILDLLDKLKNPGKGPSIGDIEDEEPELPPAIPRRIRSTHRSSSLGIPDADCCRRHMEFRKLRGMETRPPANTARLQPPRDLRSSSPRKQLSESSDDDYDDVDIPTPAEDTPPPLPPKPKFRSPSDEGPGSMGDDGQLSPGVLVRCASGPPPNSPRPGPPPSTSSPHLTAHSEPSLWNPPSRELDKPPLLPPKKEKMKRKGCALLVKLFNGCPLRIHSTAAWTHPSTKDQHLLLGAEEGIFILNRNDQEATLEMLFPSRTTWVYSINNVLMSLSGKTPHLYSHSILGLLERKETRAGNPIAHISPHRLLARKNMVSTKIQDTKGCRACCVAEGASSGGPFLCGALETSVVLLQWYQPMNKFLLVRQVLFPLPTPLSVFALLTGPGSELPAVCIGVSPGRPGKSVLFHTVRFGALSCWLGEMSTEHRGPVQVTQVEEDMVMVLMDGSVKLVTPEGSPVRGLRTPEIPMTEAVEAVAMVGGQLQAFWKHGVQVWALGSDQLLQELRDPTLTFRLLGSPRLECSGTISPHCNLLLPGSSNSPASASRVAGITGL
Erk2, sequence (P28482 whole entry, species assumed): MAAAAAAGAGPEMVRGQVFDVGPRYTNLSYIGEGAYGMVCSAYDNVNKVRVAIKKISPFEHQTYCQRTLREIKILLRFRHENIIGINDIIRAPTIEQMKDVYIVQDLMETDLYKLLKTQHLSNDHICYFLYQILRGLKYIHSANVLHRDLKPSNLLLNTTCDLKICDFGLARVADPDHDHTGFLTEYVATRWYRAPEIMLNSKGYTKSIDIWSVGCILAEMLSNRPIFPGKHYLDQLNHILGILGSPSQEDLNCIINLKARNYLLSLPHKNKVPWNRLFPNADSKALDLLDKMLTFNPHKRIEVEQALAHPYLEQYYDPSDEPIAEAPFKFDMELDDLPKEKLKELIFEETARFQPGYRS

Cc1ccc(C(=O)Nc2ccccn2)cc1C#Cc1cnc2cc(C3=CCCCC3)cnn12 [Compound C1, 3-{2-[7-(cyclohex-1-en-1-yl)imidazo[1,2-b]pyridazin-3-yl]ethynyl}-4-methyl-N-(pyridin-2-yl)benzamide]
inhibition at 1 µM [1, 22]: 8.18% | inhibition at 1 µM [1, 23]: 2.89% | inhibition at 1 µM [1, 24]: 5.54% | inhibition at 1 µM [2, 22]: 20.2% | inhibition at 1 µM [2, 23]: 19.3% | inhibition at 1 µM [2, 24]: 19.8% | inhibition at 1 µM ([3]; read-out: % Inhibition (First measurement)): 99.4% | inhibition at 1 µM ([3]; read-out: % Inhibition (Second measurement)): 99.1% | inhibition at 1 µM ([3]; read-out: Average inhibition (%)): 99.3% | Selectivity of DDR1 inhibition in the kinase inhibition profile (in words) ([3]; kinase panel): can inhibit DDR1 with higher selectivity | inhibition at 1 µM [4, 22]: 15.3% | inhibition at 1 µM [4, 23]: -3.28% | inhibition at 1 µM [4, 24]: 6.02% | inhibition at 1 µM [5, 22]: 9.39% | inhibition at 1 µM [5, 23]: 9.07% | inhibition at 1 µM [5, 24]: 9.23% | inhibition at 1 µM [6, 22]: 2.13% | inhibition at 1 µM [6, 23]: -1.96% | inhibition at 1 µM [6, 24]: 0.09% | inhibition at 1 µM [7, 22]: -3.82% | inhibition at 1 µM [7, 23]: -19.2% | inhibition at 1 µM [7, 24]: -11.5% | inhibition at 1 µM [8, 22]: -5.19% | inhibition at 1 µM [8, 23]: 5.01% | inhibition at 1 µM [8, 24]: -0.09% | inhibition at 1 µM [9, 22]: 0.83% | inhibition at 1 µM [9, 23]: 7.83% | inhibition at 1 µM [9, 24]: 4.33% | inhibition at 1 µM [10, 22]: -14.5% | inhibition at 1 µM [10, 23]: -5.25% | inhibition at 1 µM [10, 24]: -9.87% | inhibition at 1 µM [11, 22]: 15.1% | inhibition at 1 µM [11, 23]: 13.3% | inhibition at 1 µM [11, 24]: 14.2% | inhibition at 1 µM [12, 22]: 7.39% | inhibition at 1 µM [12, 23]: -6.87% | inhibition at 1 µM [12, 24]: 0.26% | inhibition at 1 µM [13, 22]: 2.42% | inhibition at 1 µM [13, 23]: 1.61% | inhibition at 1 µM [13, 24]: 2.01% | inhibition at 1 µM [14, 22]: 23.9% | inhibition at 1 µM [14, 23]: 24.7% | inhibition at 1 µM [14, 24]: 24.3% | inhibition at 1 µM [15, 22]: 0.18% | inhibition at 1 µM [15, 23]: -18.2% | inhibition at 1 µM [15, 24]: -9.02% | inhibition at 1 µM [16, 22]: 84.1% | inhibition at 1 µM [16, 23]: 84.8% | inhibition at 1 µM [16, 24]: 84.4% | inhibition at 1 µM [17, 22]: 7.17% | inhibition at 1 µM [17, 23]: 4.56% | inhibition at 1 µM [17, 24]: 5.87% | inhibition at 1 µM [18, 22]: -4.44% | inhibition at 1 µM [18, 23]: -1.87% | inhibition at 1 µM [18, 24]: -3.15% | inhibition at 1 µM [19, 22]: -5.72% | inhibition at 1 µM [19, 23]: -3.53% | inhibition at 1 µM [19, 24]: -4.62% | inhibition at 1 µM [20, 22]: 18% | inhibition at 1 µM [20, 23]: 2.55% | inhibition at 1 µM [20, 24]: 10.3% | inhibition at 1 µM [21, 22]: 10.6% | inhibition at 1 µM [21, 23]: 2.02% | inhibition at 1 µM [21, 24]: 6.33%

— US20240300958A1, “COMPOUNDS AND THE USES AND PHARMACEUTICAL COMPOSITIONS THEREOF” (BEIJING YOUZHUJU NETWORK TECHNOLOGY CO. LTD., priority 2023, published 2024)
